{"source": "patent US8609723B2", "about": "(Beijing Dingguochangsheng Biotech., Co., Ltd., priority 2008, dated 2013)", "key": {"male ICR mice [1]": {"tested_on": "male ICR mice", "test": "Tail suspension test in mice", "type": "in vivo", "details": "curcumin 10 mg/kg, Days 3 and 7 after administration, vs control group", "experimental": "The tail suspension test was carried out for each of these groups on Days 3, 7 and 14 after administration, except that such experiment was not performed for the curcumin group on Day 14. Tails of the mice were taped on a special iron stand at 1 cm from the tips, whilst keeping the mice staying at a height of 50 cm from ground. Performance of the mice was observed within 6 min, and the accumulative immobile time within the last 4 min was recoded for each mouse."}, "[2]": {"details": "background statement; cited from earlier work"}, "[3]": {"tested_on": "5-HT, NA, DA and metabolites thereof in hippocampus", "test": "Detection of monoamine and metabolites thereof in brains of mice", "type": "in vivo", "details": "10 mg/kg", "experimental": "Hippocampus was collected immediately on ice, weighed, put into an Eppendorf tube and kept in refrigeratory at −80° C. To each 100 mg brain tissue, 200 μl ice-cooled Solution A (0.4 mol/L HCLO4) was added. The mixture was homogenized ultrasonically in a ice bath, kept in dark at 4° C. for 60 min, and centrifuged for 20 min (12,000 rpm, 4° C.). […] The mixture was vortexed thoroughly for 10 min, kept at 4° C. in dark for 60 min, and centrifuged again for 20 min (12,000 rpm, 4° C.). The supernatant was collected and measured for the content of monoamine. The contents of 5-HT, NA, DA, 5-HIAA and DOPAC in brain tissue were determined by High Effective Liquid Phase Electrochemistry. […] The contents of monoamine and metabolites thereof in brain tissue were shown as ng/g wet tissue weight."}, "male ICR mice [4]": {"tested_on": "male ICR mice", "test": "Forced swimming test of mice", "type": "in vivo", "details": "curcumin 10 mg/kg, Days 3 and 7 after administration", "experimental": "The mice were forced to swim on Days 3, 7 and 14 after administration, except that such experiment was not performed for the curcumin group on Day 14.\nTwenty four hours before the formal test, the mice were placed into a round glass container (height: 25 cm, diameter: 10 cm) filled with water (depth: 10 cm) with a temperature of 24±1° C., and forced to conduct swim training for 15 min. Twenty four hours later, the mice were placed into the round glass container filled with water (depth: 10 cm) again and forced to swim for 6 min. The accumulative immobile time within the last 4 min was observed and recorded for each mouse. The immobile time is intended to mean the period within which the mouse stops to struggle, floats in the water and keeps immobile, or only makes a few slight movements that are necessary to keep its head floating on the surface of water."}, "S-180 sarcoma cells": {"tested_on": "S-180 sarcoma cells", "test": "Antitumor experiment of tumor S-180-bearing mice", "type": "in vivo", "details": "5-FU administered daily, 7 days", "description": "During the experiment, the mice were inoculated with S-180 sarcoma cells (×10^7) in armpits. […] Seven days later, the mice were sacrificed by decollation. The tumors were removed, and the mice and the tumors were weighed separately."}, "S-180 cells": {"tested_on": "S-180 cells", "test": "Effect on apoptosis of tumor cells, cell cycle by flow cytometry", "type": "in vivo, mice", "details": "sarcoma cell cycle, S-180 tumor fluid, 7 days", "description": "During the experiment, the mice were inoculated with S-180 cells (×10^7) in armpits. Seven days later, the mice were sacrificed by decollation and the tumors were removed. Tumor fluid was collected from tumors, and used for determining cell cycle by flow cytometry after ethanol fixation."}, "HCT116 cells": {"tested_on": "HCT116 cells", "test": "Antitumor experiment of tumor HCT116-bearing mice", "type": "in vivo", "details": "5-FU administered daily, 7 days", "description": "During the experiment, the mice were inoculated with HCT116 cells (×10^7) in armpits. […] Seven days later, the mice were sacrificed by decollation. The tumors were removed, and the mice and the tumors were weighed separately."}, "[5]": {"tested_on": "chronically stressed rats", "test": "Sugar water test of rats (chronic stress model)", "type": "in vivo", "details": "imipramine 10 mg/kg, table title says (%), the values are: sugar water preference", "description": "(§1) The rats in the normal control group were raised normally under a condition without any stimulation except for weighing body weight, measuring body temperature, and subjected to sugar test. All of other groups were subjected to stimulations of same type and same strength. During the experiment, different types of stimulations were applied in an unpredictable manner, and the same type of stimulation was enhanced each time.\n(§2) The chronic stress course was 20 days in total, once per day, from 9:00 AM to 2:00 PM. The stress protocol was shown as follows: horizontally shaking at a high speed for 45 min; nipping tails (1 cm from the tail root): 1 min; depriving of water for 24 h; forbidding moving for 1.5 h; fasting for 24 h; stimulating with ice water (water temperature: 10° C.) for 5 min; electric shocking (1 mA, time course: is, 1 shock/min) the bottoms of feet for 30 min; changing cages and raising separately for 24 h; forbidding moving for 2 h; nipping tails (1 cm from the root of tail) for 1 min; depriving of water for 24 h; horizontally shaking at a high speed for 1.5 h; fasting for 24 h; nipping tails (1 cm from the tail root): 1 min; electric shocking (1 mA, time course: 1 s, 1 shock/min) the bottoms of feet for 40 min; stimulating with ice water for 5 min; changing cages and raising separately for 24 h; horizontally shaking at a high speed for 60 min; electric shocking (1 mA, time course: 1 s, 1 shock/min) the bottoms of feet for 50 min; depriving of water for 24 h; forbidding moving for 2.5 h; and 24 h social isolation.\nBefore this experiment, animals were trained to adapt to drink sugar water in a to quite room. Two bottles were placed simultaneously into each cage. For the first 24 h, these two bottles were both filled with 1% sugar water; and for the next 24 h, one of them was filled with 1% sugar water and the other was filled with pure water. Then after 23-hour water deprivation, the animals were tested for basic sugar water/pure water consumption. One bottle of 1% sugar water and one bottle of pure water were provided to each rat simultaneously. One hour later, the two bottles were weighed, and the total liquid consumption, sugar water consumption, pure water consumption, and the sugar water preference=sugar water consumption/total liquid consumption×100% were calculated, respectively. The experiment was performed after continuous administration of curcumin for 14 days."}, "[6]": {"tested_on": "chronically stressed rats", "test": "Forced swimming test of rats (chronic stress model)", "type": "in vivo", "details": "imipramine 10 mg/kg intraperitoneally daily for 21 days", "description": "as §1, §2\nPlease see FIG. 7. 24 hours before the formal test, rats were placed into a round glass container (height: 40 cm, diameter: 18 cm) filled with water (depth: 23 cm) with a temperature of 24±1° C., and forced to conduct swim training for 15 min. […] The accumulative immobile time within the last 4 min was observed and recorded for each rat. The immobile time is intended to mean the period within which the rat stops to struggle, floats in the water and keeps immobile, or only makes a few slight movements that are necessary to keep its head floating on the surface of water."}, "[7]": {"tested_on": "chronically stressed rats", "test": "Measurement of body temperature of chronically stressed rats", "type": "in vivo", "details": "imipramine 10 mg/kg intraperitoneally daily for 21 days, chronic stress", "description": "as §1\nas §2, with “The” for “The chronic stress course was 20 days in total, once per day, from 9:00 AM to 2:00 PM. The”\nThe front part of a digital thermometer was coated with liquid paraffin, and then inserted into the anus of a rat with a depth of approximately 1 cm. The temperature was read twice accordingly and averaged."}, "serum corticosterone": {"tested_on": "serum corticosterone", "test": "Determination of the content of serum corticosterone (chronic stress model)", "type": "in vivo", "details": "stressed rats, imipramine 10 mg/kg daily, day after 21-day stress", "description": "as §1, §2\nIn this experiment, the content of serum corticosterone was measured by a competitive method, with its mechanism shown as follow: antigens in samples and enzyme-labeled antigens compete to bind antibodies in a solid phase. The more antigens exist in samples, the less enzyme-labeled antigens bind to the solid phase, thereby resulting in a fainter coloration.\nOn the next day after the end of the 21-day stress period, rats were sacrificed by decollation, and 5˜10 ml whole blood was collected. A portion of the collected whole blood was kept at room temperature for 20 min, followed by centrifugation at 1000 rpm for 10 min. Serum was then separated and stored at −80° C. The serum corticosterone detection kit was used for such detection."}, "[8]": {"details": "first line of group (Day 3 presumed)"}, "[9]": {"details": "second line of group (Day 7 presumed)"}}, "data": [{"compound": "COc1cc(/C=C/C(=O)CC(=O)/C=C/c2ccc(O)c(OC)c2)ccc1O", "note": "[Curcumin, curcumin, reference compound]", "values": [{"measurement": "reduction of tail suspension accumulative immobile time", "setting": "male ICR mice [1]", "value": "no significant difference"}, {"measurement": "half life", "setting": "[2]", "value": "approximately 1 hour"}, {"measurement": "Hippocampus 5-HIAA", "setting": "[3]; [8]", "value": "175.7 ± 13.8", "unit": "ng/g"}, {"measurement": "Hippocampus 5-HIAA/5-HT", "setting": "[3]; [8]", "value": "0.32 ± 0.03"}, {"measurement": "Hippocampus 5-HT", "setting": "[3]; [8]", "value": "541.2 ± 31.8", "unit": "ng/g"}, {"measurement": "Hippocampus DOPAC", "setting": "[3]; [8]", "value": "12.4 ± 1.2", "unit": "ng/g"}, {"measurement": "Hippocampus Dopamine", "setting": "[3]; [8]", "value": "19.1 ± 3.6", "unit": "ng/g"}, {"measurement": "Hippocampus Noradrenaline", "setting": "[3]; [8]", "value": "245.6 ± 12.2", "unit": "ng/g"}, {"measurement": "Hippocampus 5-HIAA", "setting": "[3]; [9]", "value": "179.2 ± 14.9", "unit": "ng/g"}, {"measurement": "Hippocampus 5-HIAA/5-HT", "setting": "[3]; [9]", "value": "0.33 ± 0.03"}, {"measurement": "Hippocampus 5-HT", "setting": "[3]; [9]", "value": "534.6 ± 28.9", "unit": "ng/g"}, {"measurement": "Hippocampus DOPAC", "setting": "[3]; [9]", "value": "11.9 ± 1.8", "unit": "ng/g"}, {"measurement": "Hippocampus Dopamine", "setting": "[3]; [9]", "value": "18.8 ± 5.4", "unit": "ng/g"}, {"measurement": "Hippocampus Noradrenaline", "setting": "[3]; [9]", "value": "246.6 ± 11.2", "unit": "ng/g"}, {"measurement": "reduction of accumulative immobile time in the forced swimming test", "setting": "male ICR mice [4]", "value": "did not significantly reduce"}]}, {"compound": "O=c1[nH]cc(F)c(=O)[nH]1", "note": "[Example 5-FU, 5-FU, reference compound]", "values": [{"measurement": "inhibitory rate of tumors", "setting": "S-180 sarcoma cells", "value": 55.8, "unit": "%"}, {"measurement": "APO % (apoptosis level of tumor cells)", "setting": "S-180 cells", "value": 29.1, "unit": "%"}, {"measurement": "G1 %", "setting": "S-180 cells", "value": 35.1, "unit": "%"}, {"measurement": "G2 %", "setting": "S-180 cells", "value": 11.7, "unit": "%"}, {"measurement": "S %", "setting": "S-180 cells", "value": 53.2, "unit": "%"}, {"measurement": "inhibitory rate of tumors", "setting": "HCT116 cells", "value": 52.8, "unit": "%"}]}, {"compound": "CN(C)CCCN1c2ccccc2CCc2ccccc21", "note": "[Imipramine, imipramine, reference compound]", "values": [{"measurement": "Sugar water volume after stress", "setting": "[5]", "value": "67.5 ± 5", "unit": "%"}, {"measurement": "Sugar water volume before stress", "setting": "[5]", "value": "74.8 ± 7.8", "unit": "%"}, {"measurement": "reduced the accumulative immobile time of the forced swimming test", "setting": "[6]", "value": 40.5, "unit": "%"}, {"measurement": "Body temperature after stress", "setting": "[7]", "value": "36.34 ± 0.083", "unit": "°C"}, {"measurement": "serum corticosterone", "setting": "serum corticosterone", "value": "137.0 ± 15.3", "unit": "nmol/L"}]}]}
